In ChEMBL document CHEMBL1157036, “QSPR modeling of octanol/water partition coefficient of antineoplastic agents by balance of correlations” (Eur J Med Chem, 2010):

assay: not given; conditions: octanol/water

In order of rising logP:
1. Cn1nnc2c(C(N)=O)ncn2c1=O [TEMOZOLOMIDE]  -2.8
2. CN(C)/N=N/c1[nH]cnc1C(N)=O [DACARBAZINE]  -1.6
3. Nc1nc2[nH]cc(CCc3ccc(C(=O)N[C@@H](CCC(=O)O)C(=O)O)cc3)c2c(=O)[nH]1 [PEMETREXED]  -1.5
4. COc1cc([C@@H]2c3cc4c(cc3[C@@H](O[C@@H]3O[C@@H]5CO[C@@H](c6cccs6)O[C@H]5[C@H](O)[C@H]3O)[C@H]3COC(=O)[C@H]23)OCO4)cc(OC)c1O [TENIPOSIDE]  1.5
5. CC[C@]1(O)C[C@@H]2CN(CCc3c([nH]c4ccccc34)[C@@](C(=O)OC)(c3cc4c(cc3OC)N(C)[C@H]3[C@@](O)(C(=O)OC)[C@H](OC(C)=O)[C@]5(CC)C=CCN6CC[C@]43[C@@H]65)C2)C1 [VINBLASTINE]  3.9

assay: physchem; conditions: octanol/water
Description: Octanol-water partition coefficient, log P of the compound

In order of falling logP:
1. C=C(c1ccc(C(=O)O)cc1)c1cc2c(cc1C)C(C)(C)CCC2(C)C [BEXAROTENE]  6.9
2. Clc1ccc(C(c2ccccc2Cl)C(Cl)Cl)cc1 (configuration not stated) [MITOTANE]  6
3. C[C@]12CC[C@@H]3c4ccc(OC(=O)N(CCCl)CCCl)cc4CC[C@H]3[C@@H]1CC[C@@H]2O [ESTRAMUSTINE]  5.7
4. CCC1=C[C@@H]2CN(C1)Cc1c([nH]c3ccccc13)[C@@](C(=O)OC)(c1cc3c(cc1OC)N(C)[C@H]1[C@@](O)(C(=O)OC)[C@H](OC(C)=O)[C@]4(CC)C=CCN5CC[C@]31[C@@H]54)C2 [VINORELBINE]  4
5. Cc1ccc(-c2cc(C(F)(F)F)nn2-c2ccc(S(N)(=O)=O)cc2)cc1 [CELECOXIB]  3.9
6. O=C(O)CCCc1ccc(N(CCCl)CCCl)cc1 [CHLORAMBUCIL]  3.9
7. COc1cc(NS(C)(=O)=O)ccc1Nc1c2ccccc2nc2ccccc12 [AMSACRINE]  3.8
8. O=NN(CCCl)C(=O)NC1CCCCC1 [LOMUSTINE]  3
9. CC(=O)O[C@H]1C(=O)[C@@]2(C)[C@H]([C@H](OC(=O)c3ccccc3)[C@]3(O)C[C@H](OC(=O)[C@H](O)[C@@H](NC(=O)c4ccccc4)c4ccccc4)C(C)=C1C3(C)C)[C@]1(OC(C)=O)CO[C@@H]1C[C@@H]2O [PACLITAXEL]  3
10. CC[C@]1(O)C[C@@H]2CN(CCc3c([nH]c4ccccc34)[C@@](C(=O)OC)(c3cc4c(cc3OC)N(C)[C@H]3[C@@](O)(C(N)=O)[C@H](O)[C@]5(CC)C=CCN6CC[C@]43[C@@H]65)C2)C1 [VINDESINE]  2.9
11. O=C1CN2Cc3c(ccc(Cl)c3Cl)N=C2N1 [ANAGRELIDE]  2.4
12. CCCCC(=O)OCC(=O)[C@]1(O)Cc2c(O)c3c(c(O)c2[C@@H](O[C@H]2C[C@H](NC(=O)C(F)(F)F)[C@H](O)[C@H](C)O2)C1)C(=O)c1c(OC)cccc1C3=O [VALRUBICIN]  2.2
13. CN(C)c1nc(N(C)C)nc(N(C)C)n1 [ALTRETAMINE]  1.7
14. O=C(CCBr)N1CCN(C(=O)CCBr)CC1 [PIPOBROMAN]  1.1
15. O=P1(N(CCCl)CCCl)NCCCO1 (configuration not stated) [CYCLOPHOSPHAMIDE ANHYDROUS]  0.8
16. O=P1(NCCCl)OCCCN1CCCl (configuration not stated) [IFOSFAMIDE]  0.8
17. CC[C@@]1(O)C(=O)OCc2c1cc1n(c2=O)Cc2cc3c(CN(C)C)c(O)ccc3nc2-1 [TOPOTECAN]  0.8
18. N[C@@H](Cc1ccc(N(CCCl)CCCl)cc1)C(=O)O  0.4
19. CCCCCOC(=O)Nc1nc(=O)n([C@@H]2O[C@H](C)[C@@H](O)[C@H]2O)cc1F [CAPECITABINE]  0.4
20. CC(=O)[C@]1(O)Cc2c(O)c3c(c(O)c2[C@@H](O[C@H]2C[C@H](N)[C@H](O)[C@H](C)O2)C1)C(=O)c1ccccc1C3=O [IDARUBICIN]  0.2
21. COc1cccc2c1C(=O)c1c(O)c3c(c(O)c1C2=O)C[C@@](O)(C(C)=O)C[C@@H]3O[C@H]1C[C@H](N)[C@H](O)[C@H](C)O1 [DAUNORUBICIN]  0.1
22. Nc1nc(Cl)nc2c1ncn2[C@@H]1O[C@H](CO)[C@@H](O)[C@@H]1F [CLOFARABINE]  0
23. CS(=O)(=O)OCCCCOS(C)(=O)=O [BUSULFAN]  -0.3
24. Sc1ncnc2nc[nH]c12 [MERCAPTOPURINE ANHYDROUS]  -0.4
25. COc1cccc2c1C(=O)c1c(O)c3c(c(O)c1C2=O)C[C@@](O)(C(=O)CO)C[C@@H]3O[C@H]1C[C@H](N)[C@H](O)[C@H](C)O1 [DOXORUBICIN]  -0.5
26. COc1cccc2c1C(=O)c1c(O)c3c(c(O)c1C2=O)C[C@@](O)(C(=O)CO)C[C@@H]3O[C@H]1C[C@H](N)[C@@H](O)[C@H](C)O1 [EPIRUBICIN]  -0.5
27. Nc1nc2nc[nH]c2c(=S)[nH]1 [THIOGUANINE]  -0.7
28. O=c1[nH]cc(F)c(=O)[nH]1 [FLUOROURACIL]  -0.8
29. OC[C@H]1O[C@@H](n2cnc3c2NC=NC[C@H]3O)C[C@@H]1O [PENTOSTATIN]  -1.1
30. COC(=O)CCC(=O)CN [METHYL AMINOLEVULINATE]  -1.2
31. Cc1nc2ccc(CN(C)c3ccc(C(=O)N[C@@H](CCC(=O)O)C(=O)O)s3)cc2c(=O)[nH]1 [RALTITREXED]  -1.2
32. Nc1ccn([C@@H]2O[C@H](CO)[C@@H](O)C2(F)F)c(=O)n1 [GEMCITABINE]  -1.4
33. NCC(=O)CCC(=O)O [AMINOLEVULINIC ACID]  -1.5
34. CN(N=O)C(=O)N[C@@H](C=O)[C@@H](O)[C@H](O)[C@H](O)CO [STREPTOZOCIN]  -1.7
35. CN(Cc1cnc2nc(N)nc(N)c2n1)c1ccc(C(=O)N[C@@H](CCC(=O)O)C(=O)O)cc1 [METHOTREXATE]  -2.2
36. Nc1nc(F)nc2c1ncn2[C@@H]1O[C@H](CO)[C@@H](O)[C@@H]1O [FLUDARABINE]  -2.8
37. O=C1c2c(O)ccc(O)c2C(=O)c2c(NCCNCCO)ccc(NCCNCCO)c21 [MITOXANTRONE]  -3.1
